From US8901118B2, “Compounds and methods for kinase modulation, and indications therefor” (Plexxikon Inc., priority 2010, dated 2014)

Assays:
CYP2C9 = CYP2C9 (Homo sapiens, UniProt P11712); experiment: CYP2C9 inhibition (fluorescent substrate MFC); assay type: in vitro ADME; conditions: read-out: Cyp IC50 2C9
In short: (§1)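 Test compound titrated 1:1 across ten concentrations; metabolite fluorescence measured after 37 °C incubation of 15 min (CYP1A2), 30 min (CYP2C19, CYP2D6) or 45 min (CYP2C9). IC50 from signal versus concentration.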

CYP2D6 = CYP2D6 (Homo sapiens, UniProt P10635); experiment: CYP2D6 inhibition (fluorescent substrate AMMC); assay type: in vitro ADME; conditions: read-out: Cyp IC50 2D6
In short: as §1

CYP1A2 = target: T1, CYP1A2 (Homo sapiens, UniProt P05177); experiment: CYP1A2 inhibition (fluorescent substrate CEC); assay type: in vitro ADME; conditions: read-out: Cyp IC50 1A2
T1 sequence (P05177 1-516): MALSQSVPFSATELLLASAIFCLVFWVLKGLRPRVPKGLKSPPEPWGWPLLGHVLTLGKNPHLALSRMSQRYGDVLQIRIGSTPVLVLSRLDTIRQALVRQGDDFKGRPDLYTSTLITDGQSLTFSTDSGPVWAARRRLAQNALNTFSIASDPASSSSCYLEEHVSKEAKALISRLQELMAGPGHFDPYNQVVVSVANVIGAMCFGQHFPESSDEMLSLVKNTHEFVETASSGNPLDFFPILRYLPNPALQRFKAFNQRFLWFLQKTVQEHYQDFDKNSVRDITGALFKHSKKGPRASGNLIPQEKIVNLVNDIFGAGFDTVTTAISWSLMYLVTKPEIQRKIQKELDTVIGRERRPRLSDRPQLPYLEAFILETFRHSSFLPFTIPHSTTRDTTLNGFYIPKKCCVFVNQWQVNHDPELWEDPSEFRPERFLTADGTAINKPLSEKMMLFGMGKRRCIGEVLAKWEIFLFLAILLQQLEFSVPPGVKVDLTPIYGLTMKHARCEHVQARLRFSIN
In short: as §1

CYP3A4(BFC) = CYP3A4(BFC) (Homo sapiens, UniProt P08684); experiment: CYP3A4(BFC) inhibition; assay type: in vitro ADME; conditions: CYP3A4, substrate BFC; read-out: Cyp IC50 3A4(BFC)
In short: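 This fluorescence assay tracks how test compounds reduce CYP3A4 turnover of BFC, with enzyme and substrate from BD Biosciences. A 10-point 1:1 dilution series in cofactor mix (1.3% NADPH Regeneration Solution A, 1.04% Solution B, 5% acetonitrile, 0.05% DMSO) was dispensed at 10 μL into 384 well plates, preincubated 10 minutes at 37° C, then incubated 30 min and read on a Tecan Safire 2.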

CYP3A4(BQ) = CYP3A4(BQ) (Homo sapiens, UniProt P08684); experiment: CYP3A4(BQ) inhibition; assay type: in vitro ADME; conditions: CYP3A4, substrate BQ; read-out: Cyp IC50 3A4(BQ)
In short: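 After 30 min incubation at 37° C, plates were read on a Tecan Safire 2 at 409 ex/460 em, and IC50 values came from signal plotted against compound concentration. Enzyme and substrate were sourced from BD Biosciences. The cofactor mix held 1.3% NADPH Regeneration system Solution A, 1.04% Solution B, 5% acetonitrile and 0.05% DMSO.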

[1] = Relative solubility by turbidity in aqueous buffers (pH 1.5, 4.5, 6.8, 7.4); assay type: physicochemical; conditions: for turbidity threshold (L, M, H) 1.4: pH 1.5 (SGF); for turbidity threshold (L, M, H) 4.5: pH 4.5 (SIF); for turbidity threshold (L, M, H) 6.8: pH 6.8 (SIF); for turbidity threshold (L, M, H) 7.4: pH 7.4 (HEPES)
In short: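 Reported value: concentration at which optical density at 490, 535 and 650 nm passes 0.01, taken as the mean of the three wavelengths. Buffers were 0.5M NaCl pH 1.5, 0.05M NaH2PO4 pH 4.5 or 6.8, and 10 mM HEPES/150 mM NaCl pH 7.4, each receiving serial 1:1 DMSO dilutions of a 25 mM stock.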

Sequence of CYP2C9 (P11712 whole entry): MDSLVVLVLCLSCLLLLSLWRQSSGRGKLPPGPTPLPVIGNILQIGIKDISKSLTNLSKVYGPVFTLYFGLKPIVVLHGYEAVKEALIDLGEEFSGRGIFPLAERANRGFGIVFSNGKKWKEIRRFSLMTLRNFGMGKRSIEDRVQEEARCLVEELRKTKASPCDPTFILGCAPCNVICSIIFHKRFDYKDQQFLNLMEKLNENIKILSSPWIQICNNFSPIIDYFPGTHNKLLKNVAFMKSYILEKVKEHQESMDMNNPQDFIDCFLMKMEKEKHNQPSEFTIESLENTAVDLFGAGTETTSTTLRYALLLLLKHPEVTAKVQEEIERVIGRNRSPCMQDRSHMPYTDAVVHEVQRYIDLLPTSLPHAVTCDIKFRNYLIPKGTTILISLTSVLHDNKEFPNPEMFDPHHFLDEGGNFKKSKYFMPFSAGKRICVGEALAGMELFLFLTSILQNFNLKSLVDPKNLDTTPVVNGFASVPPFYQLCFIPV
Sequence of CYP3A4(BFC) (P08684 whole entry): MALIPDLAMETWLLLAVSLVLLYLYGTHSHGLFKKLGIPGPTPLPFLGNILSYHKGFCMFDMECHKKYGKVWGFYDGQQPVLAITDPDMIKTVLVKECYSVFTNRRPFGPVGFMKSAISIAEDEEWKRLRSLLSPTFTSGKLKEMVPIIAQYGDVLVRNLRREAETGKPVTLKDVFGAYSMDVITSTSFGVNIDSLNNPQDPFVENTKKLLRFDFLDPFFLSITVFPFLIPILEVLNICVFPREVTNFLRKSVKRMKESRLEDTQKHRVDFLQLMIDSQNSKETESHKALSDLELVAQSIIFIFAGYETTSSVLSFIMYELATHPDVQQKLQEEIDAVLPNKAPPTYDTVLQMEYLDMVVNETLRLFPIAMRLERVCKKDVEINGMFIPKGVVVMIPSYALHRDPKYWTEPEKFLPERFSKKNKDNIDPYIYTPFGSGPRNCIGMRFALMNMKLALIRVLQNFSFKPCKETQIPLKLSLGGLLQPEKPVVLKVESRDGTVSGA
Sequence of CYP3A4(BQ) (P08684 whole entry): as above
Sequence of CYP2D6 (P10635 whole entry): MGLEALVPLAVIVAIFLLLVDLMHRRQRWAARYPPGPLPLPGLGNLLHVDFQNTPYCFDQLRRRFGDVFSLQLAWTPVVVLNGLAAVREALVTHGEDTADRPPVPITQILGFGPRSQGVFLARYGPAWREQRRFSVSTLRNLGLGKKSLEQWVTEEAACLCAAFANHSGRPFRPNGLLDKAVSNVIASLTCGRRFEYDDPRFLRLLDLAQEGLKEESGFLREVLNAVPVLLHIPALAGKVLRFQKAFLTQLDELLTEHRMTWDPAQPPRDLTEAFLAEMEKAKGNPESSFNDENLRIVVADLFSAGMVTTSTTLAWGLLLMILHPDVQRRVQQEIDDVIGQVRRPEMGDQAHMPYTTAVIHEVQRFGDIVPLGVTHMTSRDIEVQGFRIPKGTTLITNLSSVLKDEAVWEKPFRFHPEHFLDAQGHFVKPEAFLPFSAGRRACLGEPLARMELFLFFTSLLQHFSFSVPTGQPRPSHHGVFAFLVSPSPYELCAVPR

IC50 (CYP2C9) [µM] | IC50 (CYP2D6) [µM] | IC50 (CYP1A2) [µM] | IC50 (CYP3A4(BFC)) [µM] | IC50 (CYP3A4(BQ)) [µM] | SMILES | turbidity threshold (L, M, H) 1.4 [1] | turbidity threshold (L, M, H) 4.5 [1] | turbidity threshold (L, M, H) 6.8 [1] | turbidity threshold (L, M, H) 7.4 [1]
5 to 10 | > 10 | > 10 | 5 to 10 |  | Cc1cnc2[nH]cc(Cc3ccc(NC4CCCCC4)nc3F)c2c1 [Compound P-3008, cyclohexyl-[6-fluoro-5-(5-methyl-1H-pyrrolo[2,3-b]pyridin-3-ylmethyl)-pyridin-2-yl]-amine] |  |  |  | 
5 to 10 | > 10 | 5 to 10 | > 10 | 5 to 10 | Fc1nc(Nc2ccc(C3CC3)nc2)ccc1Cc1c[nH]c2ncnc(C3CC3)c12 [Compound P-4041, (6-Cyclopropyl-pyridin-3-yl)-[5-(4-cyclopropyl-7H-pyrrolo[2,3-d]pyrimidin-5-ylmethyl)-6-fluoro-pyridin-2-yl]-amine] |  |  |  | 
> 10 | > 10 | > 10 | > 10 | > 10 | CC(C)=CNc1ncnc2[nH]cc(C(=O)c3ccc(NC4CCC(F)(F)CC4)nc3Cl)c12 [Compound P-4047, [2-chloro-6-[(4,4-difluorocyclohexyl)amino]-3-pyridyl]-[4-(2-methylprop-1-enylamino)-7H-pyrrolo[2,3-d]pyrimidin-5-yl]methanone] |  |  |  | 
> 10 | > 10 | > 10 | > 10 | > 10 | Nc1ncnc2[nH]cc(C(=O)c3ccc(Nc4ccc(C5CC5)nc4)nc3F)c12 [Compound P-4048, (4-amino-7H-pyrrolo[2,3-d]pyrimidin-5-yl)-[6-[(6-cyclopropyl-3-pyridyl)amino]-2-fluoro-3-pyridyl]methanone] | H (high solubility if the threshold concentration is >250 μm) | M (moderate solubility if the threshold concentration is 31.3 μM to 250 μM) | M (moderate solubility if the threshold concentration is 31.3 μM to 250 μM) | M (moderate solubility if the threshold concentration is 31.3 μM to 250 μM)
5 to 10 | > 10 | > 10 | > 10 | > 10 | CC(C)(O)CNc1ncnc2[nH]cc(C(=O)c3ccc(Nc4ccc(C5CC5)nc4)nc3F)c12 [Compound P-4049, [6-[(6-cyclopropyl-3-pyridyl)amino]-2-fluoro-3-pyridyl]-[4-[(2-hydroxy-2-methyl-propyl)amino]-7H-pyrrolo[2,3-d]pyrimidin-5-yl]methanone] | H (high solubility if the threshold concentration is >250 μm) | L (low solubility if the threshold concentration is <31.3 μM) | L (low solubility if the threshold concentration is <31.3 μM) | L (low solubility if the threshold concentration is <31.3 μM)
> 10 | > 10 | > 10 | > 10 | > 10 | CCNc1ncnc2[nH]cc(C(=O)c3ccc(NC4CCC(F)(F)CC4)nc3Cl)c12 [Compound P-4050, [2-chloro-6-[(4,4-difluorocyclohexyl)amino]-3-pyridyl]-[4-(ethylamino)-7H-pyrrolo[2,3-d]pyrimidin-5-yl]methanone] | H (high solubility if the threshold concentration is >250 μm) | L (low solubility if the threshold concentration is <31.3 μM) | L (low solubility if the threshold concentration is <31.3 μM) | L (low solubility if the threshold concentration is <31.3 μM)
> 10 | > 10 | > 10 | > 10 | > 10 | CCNc1ncnc2[nH]cc(C(=O)c3cnc(NC4CCC(F)(F)CC4)c(F)c3)c12 [Compound P-4051, [6-[(4,4-difluorocyclohexyl)amino]-5-fluoro-3-pyridyl]-[4-(ethylamino)-7H-pyrrolo[2,3-d]pyrimidin-5-yl]methanone] | H (high solubility if the threshold concentration is >250 μm) | M (moderate solubility if the threshold concentration is 31.3 μM to 250 μM) | M (moderate solubility if the threshold concentration is 31.3 μM to 250 μM) | L (low solubility if the threshold concentration is <31.3 μM)
> 10 | > 10 | > 10 | > 10 | > 10 | O=C(c1cnc(NC2CCC(F)(F)CC2)c(F)c1)c1c[nH]c2ncnc(NCC(F)(F)F)c12 [Compound P-4052, [6-[(4,4-difluorocyclohexyl)amino]-5-fluoro-3-pyridyl]-[4-(2,2,2-trifluoroethylamino)-7H-pyrrolo[2,3-d]pyrimidin-5-yl]methanone] | L (low solubility if the threshold concentration is <31.3 μM) | L (low solubility if the threshold concentration is <31.3 μM) | L (low solubility if the threshold concentration is <31.3 μM) | L (low solubility if the threshold concentration is <31.3 μM)
> 10 | > 10 | > 10 | > 10 | > 10 | O=C(c1cnc(NC2CCC(F)(F)CC2)c(F)c1)c1c[nH]c2ncnc(NC3CC3)c12 [Compound P-4053, [4-(cyclopropylamino)-7H-pyrrolo[2,3-d]pyrimidin-5-yl]-[6-[(4,4-difluorocyclohexyl)amino]-5-fluoro-3-pyridyl]methanone] | H (high solubility if the threshold concentration is >250 μm) | M (moderate solubility if the threshold concentration is 31.3 μM to 250 μM) | M (moderate solubility if the threshold concentration is 31.3 μM to 250 μM) | M (moderate solubility if the threshold concentration is 31.3 μM to 250 μM)
> 10 | > 10 | > 10 | > 10 | > 10 | CNc1ncnc2[nH]cc(C(=O)c3cnc(NC4CCC(F)(F)CC4)c(F)c3)c12 [Compound P-4054, [6-[(4,4-difluorocyclohexyl)amino]-5-fluoro-3-pyridyl]-[4-(methylamino)-7H-pyrrolo[2,3-d]pyrimidin-5-yl]methanone] | H (high solubility if the threshold concentration is >250 μm) | M (moderate solubility if the threshold concentration is 31.3 μM to 250 μM) | M (moderate solubility if the threshold concentration is 31.3 μM to 250 μM) | M (moderate solubility if the threshold concentration is 31.3 μM to 250 μM)
